From patent US11993603B2, “Preparation for 6-amino-1H-pyrazolo[3,4-d]pyrimidine-based JAK kinase inhibitor and application thereof” (INSTITUTE OF MATERIA MEDICA, CHINESE ACADEMY OF MEDICAL …, priority 2018, dated 2024)

How the values were obtained:
Type in all cases: biochemical
JAK-3 = JAK-3 (Homo sapiens (Human), UniProt P52333); experiment: Inhibition test on JAK-3 kinase (FRET peptide substrate assay); conditions: kinase 1 nM, 1 h at room temperature; read-out: IC50 (nM) JAK-3
Text: (§1) Experiment Example (Inhibition Tests on JAK-1, JAK-2 and JAK-3 Kinases)
(§2) To evaluate the inhibitory activity of the compound on JAK-1, JAK-2 and JAK-3 kinases
(§3) A proteolytic enzyme is coupled to exert different proteolysis on a specific phosphorylated and nonphosphorylated peptide substrate based on fluorescence resonance energy transfer (FRET). Both ends of the peptide substrate were respectively labeled FRET energy donor coumarin and energy receptor fluorescein, and at this time, the donor was stimulated to produce energy transfer when the donor is close to a receptor.
(§4) In Kinase Reaction, JAK-1, JAK-2 or JAK-3 may transfer γ-phosphoric acid in ATP onto a single tyrosine residue of a peptide substrate; and there were JAK-1, JAK-2 or JAK-3 inhibitors in the system, γ-phosphoric acid groups on ATP would be not transferred onto the peptide substrate, thus resulting in the failure of phosphorylation. An evaluation experiment was designed based on the principle, a peptide substrate was designed with kinase phosphorylation sites, namely, protein restriction enzyme cutting sites; and both ends thereof were respectively connected with 2 fluorophores as a donor and a receptor respectively; if the kinase kept activity in the system, a γ-phosphonic acid group was transferred onto restriction enzyme cutting sites of the substrate, so that the γ-phosphonic acid group would not be cut and separated into two segments by a protease; moreover, under the stimulation of a laser having a specific wavelength, energy from a segment of fluorescence would be transferred onto another end of fluorophores, thus emitting energy. Otherwise, after kinase activity was inhibited, phosphoric acid groups would be not transferred, and restriction enzyme cutting sites in the substrate would be cut by a […] in the system to separate the substrate into two segments, thereby no energy transfer of fluorescence occurred. Based on this, the activity of the kinase was evaluated.
(§5) In this experiment, a 10 μl kinase reaction system was selected, firstly, 2.5 μl kinase (concentration: 1 nM), 2.5 μl peptide substrate (concentration: 2 μM), 2.5 μl ATP (concentration: […]) and 2.5 μl compound were added to each system for reaction for 1 h at room temperature, and then a 5 μl test solution was added for reaction for 1 h at room temperature, then a 5 μl stop buffer was added. A microplate reader (Synergy H1, BioTek, USA) was used to measure fluorescence intensity (emission intensity of coumarin at 445 nm and emission intensity of fluorescein at 520 nm were detected under the stimulation of 400 nm). The inhibitory activity of each compound was calculated, where it was believed that fluorescence intensity of a well not containing the kinase was 100% inhibited.

JAK-1 = JAK-1 (Homo sapiens (Human), UniProt P23458); experiment: Inhibition test on JAK-1 kinase (FRET peptide substrate assay); conditions: kinase 1 nM, 1 h at room temperature
Text: as §1, §2, §3, §4, §5

JAK-2 = JAK-2 (Homo sapiens (Human), UniProt O60674); experiment: Inhibition test on JAK-2 kinase (FRET peptide substrate assay); conditions: kinase 1 nM, 1 h at room temperature
Text: as §1, §2, §3, §4, §5

Sequence of JAK-1 (P23458 whole entry): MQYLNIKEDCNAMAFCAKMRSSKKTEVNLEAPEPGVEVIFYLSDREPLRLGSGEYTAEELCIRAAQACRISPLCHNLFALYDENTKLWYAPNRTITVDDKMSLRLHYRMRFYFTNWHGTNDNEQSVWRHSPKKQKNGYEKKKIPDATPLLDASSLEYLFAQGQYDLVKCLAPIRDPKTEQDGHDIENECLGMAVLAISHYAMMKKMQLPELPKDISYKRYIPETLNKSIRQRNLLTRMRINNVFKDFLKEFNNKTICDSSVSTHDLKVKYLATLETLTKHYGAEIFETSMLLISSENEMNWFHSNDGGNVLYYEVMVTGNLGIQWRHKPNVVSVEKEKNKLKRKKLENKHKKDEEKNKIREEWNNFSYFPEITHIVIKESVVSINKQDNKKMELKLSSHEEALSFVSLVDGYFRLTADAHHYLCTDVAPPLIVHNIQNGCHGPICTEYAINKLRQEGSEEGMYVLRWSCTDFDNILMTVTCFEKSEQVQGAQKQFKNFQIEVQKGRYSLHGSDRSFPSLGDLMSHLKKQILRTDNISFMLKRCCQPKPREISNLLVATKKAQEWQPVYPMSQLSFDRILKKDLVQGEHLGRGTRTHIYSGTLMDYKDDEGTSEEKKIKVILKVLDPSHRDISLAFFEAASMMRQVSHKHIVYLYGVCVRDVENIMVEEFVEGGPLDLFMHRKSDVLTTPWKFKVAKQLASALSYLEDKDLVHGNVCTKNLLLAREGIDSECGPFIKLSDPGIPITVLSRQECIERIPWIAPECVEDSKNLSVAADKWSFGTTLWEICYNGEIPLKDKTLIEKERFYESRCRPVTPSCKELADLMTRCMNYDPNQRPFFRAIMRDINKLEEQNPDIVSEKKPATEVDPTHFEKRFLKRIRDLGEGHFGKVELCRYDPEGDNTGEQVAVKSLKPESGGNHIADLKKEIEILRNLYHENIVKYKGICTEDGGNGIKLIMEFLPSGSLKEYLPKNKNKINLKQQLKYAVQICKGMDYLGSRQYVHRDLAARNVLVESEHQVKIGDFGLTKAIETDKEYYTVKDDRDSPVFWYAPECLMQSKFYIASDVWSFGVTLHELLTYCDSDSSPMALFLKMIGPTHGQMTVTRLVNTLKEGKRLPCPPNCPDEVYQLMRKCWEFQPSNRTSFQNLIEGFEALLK
Sequence of JAK-2 (O60674 whole entry): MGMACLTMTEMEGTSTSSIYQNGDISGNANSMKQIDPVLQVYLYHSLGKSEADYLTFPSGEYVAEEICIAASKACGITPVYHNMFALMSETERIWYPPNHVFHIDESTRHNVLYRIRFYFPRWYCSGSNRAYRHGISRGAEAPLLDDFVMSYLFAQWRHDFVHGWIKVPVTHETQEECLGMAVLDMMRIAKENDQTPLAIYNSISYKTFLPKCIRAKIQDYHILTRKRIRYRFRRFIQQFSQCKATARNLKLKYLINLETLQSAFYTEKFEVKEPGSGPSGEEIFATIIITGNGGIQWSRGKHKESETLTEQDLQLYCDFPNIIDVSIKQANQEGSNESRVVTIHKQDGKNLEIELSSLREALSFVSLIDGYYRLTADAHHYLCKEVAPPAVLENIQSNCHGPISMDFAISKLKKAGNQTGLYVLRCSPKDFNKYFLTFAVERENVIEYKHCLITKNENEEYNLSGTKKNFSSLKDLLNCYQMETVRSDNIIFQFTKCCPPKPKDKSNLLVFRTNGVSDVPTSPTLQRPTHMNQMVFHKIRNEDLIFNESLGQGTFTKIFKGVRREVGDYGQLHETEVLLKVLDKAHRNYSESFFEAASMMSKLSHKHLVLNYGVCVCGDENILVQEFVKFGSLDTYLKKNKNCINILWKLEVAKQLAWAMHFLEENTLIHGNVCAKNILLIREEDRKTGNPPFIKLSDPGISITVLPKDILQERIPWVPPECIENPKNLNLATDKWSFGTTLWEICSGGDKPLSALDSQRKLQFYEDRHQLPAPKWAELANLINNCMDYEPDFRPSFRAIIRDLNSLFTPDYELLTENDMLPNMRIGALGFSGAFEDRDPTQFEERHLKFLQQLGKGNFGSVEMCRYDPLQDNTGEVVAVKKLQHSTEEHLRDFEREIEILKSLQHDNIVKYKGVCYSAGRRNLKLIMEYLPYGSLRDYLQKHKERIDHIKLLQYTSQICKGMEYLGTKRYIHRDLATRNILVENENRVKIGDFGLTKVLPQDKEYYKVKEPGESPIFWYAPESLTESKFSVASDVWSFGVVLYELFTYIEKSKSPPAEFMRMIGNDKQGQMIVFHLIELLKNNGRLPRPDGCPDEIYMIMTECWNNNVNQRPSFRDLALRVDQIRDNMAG
Sequence of JAK-3 (P52333 whole entry): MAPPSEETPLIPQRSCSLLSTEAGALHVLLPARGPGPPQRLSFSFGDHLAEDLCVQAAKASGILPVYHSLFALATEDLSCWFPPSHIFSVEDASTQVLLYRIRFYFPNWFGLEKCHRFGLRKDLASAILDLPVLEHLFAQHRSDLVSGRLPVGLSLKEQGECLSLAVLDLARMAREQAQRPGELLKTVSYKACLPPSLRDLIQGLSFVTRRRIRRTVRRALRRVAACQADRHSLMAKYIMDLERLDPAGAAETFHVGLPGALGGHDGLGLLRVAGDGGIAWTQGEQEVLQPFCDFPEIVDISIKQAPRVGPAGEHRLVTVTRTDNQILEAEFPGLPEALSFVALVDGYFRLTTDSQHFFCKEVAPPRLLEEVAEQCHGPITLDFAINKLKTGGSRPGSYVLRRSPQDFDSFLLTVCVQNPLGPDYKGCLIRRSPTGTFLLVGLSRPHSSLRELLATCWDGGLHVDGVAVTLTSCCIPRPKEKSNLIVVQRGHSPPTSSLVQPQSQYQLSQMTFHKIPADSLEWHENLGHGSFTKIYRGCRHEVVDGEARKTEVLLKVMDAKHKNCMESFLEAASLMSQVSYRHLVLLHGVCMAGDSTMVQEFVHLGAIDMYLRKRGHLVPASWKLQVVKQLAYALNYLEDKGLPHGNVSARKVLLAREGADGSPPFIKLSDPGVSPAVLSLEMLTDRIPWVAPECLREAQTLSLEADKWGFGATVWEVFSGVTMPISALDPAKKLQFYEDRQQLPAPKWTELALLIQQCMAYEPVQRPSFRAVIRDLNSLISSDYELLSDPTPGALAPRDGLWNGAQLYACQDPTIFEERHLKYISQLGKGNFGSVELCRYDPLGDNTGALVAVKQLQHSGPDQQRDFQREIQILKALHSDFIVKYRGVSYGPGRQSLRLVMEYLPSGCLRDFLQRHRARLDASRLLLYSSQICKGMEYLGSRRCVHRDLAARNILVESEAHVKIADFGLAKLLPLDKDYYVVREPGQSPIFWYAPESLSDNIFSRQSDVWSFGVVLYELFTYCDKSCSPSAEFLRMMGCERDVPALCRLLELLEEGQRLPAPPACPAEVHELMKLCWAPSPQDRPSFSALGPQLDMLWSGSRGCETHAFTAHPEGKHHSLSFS

| IC50 (JAK-3) [nM] | IC50 (JAK-1) [nM] | IC50 (JAK-2) [nM] | Compound |
| --- | --- | --- | --- |
| 3.7 | 1580 | 1800 | C=CC(=O)Nc1cccc(Cn2ncc3cnc(Nc4ccc(F)cc4)nc32)c1 [Example 5, N-(3-((6-((4-fluorophenyl)amino)-1H-pyrazolo[3,4-d]pyrimidin-1-yl)methyl)phenyl)acrylamide] |
| 0.13 | 829 | 4220 | C=CC(=O)Nc1cccc(Cn2ncc3cnc(Nc4cnn(CCO)c4)nc32)c1 [Example 3, N-(3-((6-((1-(2-hydroxyethyl)-1H-pyrazol-4-yl)amino)-1H-pyrazolo[3,4-d]pyrimidin-1-yl)methyl)phenyl)acrylamide] |
